Results taken from patent US20230321181A1, “COMPOSITION FOR PREVENTION, IMPROVEMENT OR TREATMENT OF ALLERGIC DISEASE OR ITCHING COMPRISING PENTAPEPTIDE AS ACTIVE INGREDIENT” (CAREGEN CO, LTD., priority 2020, published 2023).

Columns and labels:
mouse splenocytes = assay: Expression of inflammation-related cytokines in splenocytes (RT-PCR); assay type: cell-based; conditions: TNF-α induced, 30 minutes, vs control (NC)
Protocol: In order to confirm the effect of inhibiting allergic inflammatory response and improving atopic dermatitis by the pentapeptide of the present invention, the expression pattern of inflammation-related cytokines was confirmed using mouse splenocytes.
Specifically, after separating mouse splenocytes, the cells were inoculated into a 24-well plate at a density of 1×10^7 cells/well, and then cultured overnight at a 37° C., 5% CO2 incubator. After changing the medium to a serum-free medium, 4 hours later, the pentapeptide of the present invention and TNF-α were treated and cultured for 30 minutes. At this time, 20 μg/mL of ketotifen was used as a positive control.
After recovering the cells and then isolating RNA, cDNA was synthesized using a cDNA synthesis kit (Intron, Korea). A polymerase chain reaction was performed using the synthesized cDNA, PCR premix (Intron, Korea) and TNF-α, IL-113 and COX-2 primers, and the amplified PCR product was electrophoresed on an agarose gel to confirm a DNA band. The primer sequences used at this time are as shown in [Table 2].

[1] = High temperature stability at 121° C. (HPLC); assay type: physicochemical; conditions: 1000 ppm in sterile distilled water, 15 and 30 minutes
Protocol: The peptide of the present invention was dissolved in sterile distilled water at a concentration of 1000 ppm, heated at 121° C. for 15 minutes and 30 minutes, followed by HPLC analysis.

[2] = High temperature stability during long-term storage at 45° C. (HPLC); assay type: physicochemical; conditions: 1000 ppm in sterile distilled water, 7 to 75 days
Protocol: The peptide of the present invention consisting of the amino acid sequence of SEQ ID NO: 1 was dissolved in sterile distilled water at a concentration of 1000 ppm, stored at 45° C. for 7 days, 14 days, 28 days, 60 days and 75 days, followed by HPLC analysis.

[3] = test system: mast cells (rat basophilic leukemia cell line, RBL-2H3); assay: Expression of inflammation-related cytokines in mast cells (RT-PCR); assay type: cell-based; conditions: RBL-2H3, DNP-IgE sensitized, DNP-HSA 2 hours, vs control (NC)
Protocol: In order to confirm the effect of inhibiting allergic inflammatory response and improving atopic dermatitis by the pentapeptide of the present invention, the expression pattern of inflammation-related cytokines was confirmed using mast cells (rat basophilic leukemia cell line, RBL-2H3).
Specifically, RBL-2H3 cells were inoculated into a 12-well plate at a density of 5×10^5 cells/well, and then cultured overnight at a 37° C., 5% CO2 incubator. Then, the cells were sensitized by adding DNP-IgE to a complete medium. After 3 hours, it was washed 3 times with DPBS and then PIPES buffer was added thereto. In addition, an immune response was induced by pretreatment with the pentapeptide of the present invention synthesized in Example 1 for 30 minutes and then with DNP-HSA for 2 hours. At this time, 20 μg/mL of ketotifen was used as a positive control.
After recovering the cells and then isolating RNA, cDNA was synthesized from the isolated RNA using a cDNA synthesis kit (Intron, Korea). A polymerase chain reaction was performed using the synthesized cDNA, PCR premix (Intron, Korea) and IL-3, IL-4, and TNF-α primers, and the amplified PCR product was electrophoresed on an agarose gel to confirm a DNA band. The primer sequences used at this time are as shown in [Table 1].

[4] = test system: mast cells (rat basophilic leukemia cell line, RBL-2H3); assay: Degranulation (β-hexosaminidase release) in DNP-IgE/DNP-HSA stimulated mast cells; assay type: cell-based; conditions: 10 μM or 100 μM, 30 min pretreatment, DNP-IgE sensitized, DNP-HSA 3 hours, vs control (NC)
Protocol: In order to confirm the effect of inhibiting allergic inflammatory response and improving atopic dermatitis by the pentapeptide of the present invention, the degree of degranulation was confirmed using mast cells (rat basophilic leukemia cell line, RBL-2H3).
Specifically, RBL-2H3 cells were inoculated into a 12-well plate at a density of 5×10^5 cells/well, and then cultured overnight at a 37° C., 5% CO2 incubator. Then, the cells were sensitized by adding DNP-IgE to a complete medium. After 3 hours, it was washed 3 times with DPBS and then PIPES buffer was added thereto. In addition, an immune response was induced by pretreatment with the pentapeptide of the present invention synthesized in Example 1 for 30 minutes and then with DNP-HSA for 3 hours. After that, 25 μL of the supernatant was recovered, 25 μL of the substrate solution (5 mM p-nitrophenyl-N-acetyl-β-D-glucosaminide dissolved in 0.2 M sodium citrate buffer, pH 4.5) was added thereto, and then incubated at 37° C. for 90 minutes to react. After the reaction, 200 μL of stop solution (0.1 M Na2CO3/NaHCO3, pH 10.0) was added to each well to stop the enzymatic reaction, and absorbance was measured at 405 nm using a microplate reader. β-hexosamidase secreted from the supernatant was quantified according to Equation 1 below after adding 0.5% Triton X-100 solution to the cells. […]

Substance: KFLIK (Pentapeptide) [pentapeptide of the present invention]
- expression of COX-2 (mouse splenocytes): significantly reduced
- expression of IL-1β (mouse splenocytes): significantly reduced
- expression of TNF-α (mouse splenocytes): significantly reduced
- high-temperature stability at maximum heating temperature [1]: maintained stability for 30 minutes
- high-temperature stability during long-term storage [2]: maintained stability for 75 days
- expression of IL-3 [3]: significantly reduced
- expression of IL-4 [3]: significantly reduced
- expression of TNF-α [3]: significantly reduced
- release amount of β-hexosamidase [4]: decreased in a concentration-dependent manner
